Measured values: PubChem BioAssay AID1963837 (Molecular Pharmacology Branch, DTP, NCI, 2024)

System: 843126-344-R-J1-PDC complex spheroid viability
Experiment: Anticancer human tumor 843126-344-R-J1-PDC patient-derived melanoma cell line growth inhibition [POLQ]
Settings: for IC50: curve of first compound; for viability, T/C: stronger effect = lower value; active = viability on the fitted dose curve at most 10% of control; inactive = the rest
Outline: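 Growth inhibition in 3D: complex spheroids (tumor PDC, HUVEC, MSC) treated with POLQ inhibitor combinations; where Cmax unknown, highest tested concentration 10 microM, except SN-38 at 1 microM.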
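For viability, T/C in this document: spheroids exposed to drugs for seven days before readout.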

CC(C)n1c(=O)n(C)c2cnc3cc(F)c(-c4ccc(OCCCN5CCCCC5)nc4)cc3c21 + COC1C(OC(N)=O)C(O)C(Oc2ccc3c(O)c(NC(=O)c4ccc(O)c(CC=C(C)C)c4)c(=O)oc3c2C)OC1(C)C
inactive: viability, T/C (second compound 0.0316 µM, first compound 0.0316 µM) 79.6% | viability, T/C (second compound 0.0316 µM, first compound 0.1 µM) 85.9% | viability, T/C (second compound 0.0316 µM, first compound 0.316 µM) 94.7% | viability, T/C (second compound 0.0316 µM, first compound 1 µM) 86.4% | viability, T/C (second compound 0.0316 µM, first compound 3.16 µM) 77.2% | viability, T/C (second compound 0.0316 µM, first compound 10 µM) 70.5% | viability, T/C (second compound 0.1 µM, first compound 0.0316 µM) 81.1% | viability, T/C (second compound 0.1 µM, first compound 0.1 µM) 69.3% | viability, T/C (second compound 0.1 µM, first compound 0.316 µM) 85% | viability, T/C (second compound 0.1 µM, first compound 1 µM) 94.8% | viability, T/C (second compound 0.1 µM, first compound 3.16 µM) 74.8% | viability, T/C (second compound 0.1 µM, first compound 10 µM) 76.1% | viability, T/C (second compound 0.316 µM, first compound 0.0316 µM) 90.8% | viability, T/C (second compound 0.316 µM, first compound 0.1 µM) 76.2% | viability, T/C (second compound 0.316 µM, first compound 0.316 µM) 79.8% | viability, T/C (second compound 0.316 µM, first compound 1 µM) 91.1% | viability, T/C (second compound 0.316 µM, first compound 3.16 µM) 70.3% | viability, T/C (second compound 0.316 µM, first compound 10 µM) 67.8% | viability, T/C (second compound 1 µM, first compound 0.0316 µM) 95.5% | viability, T/C (second compound 1 µM, first compound 0.1 µM) 82.4% | viability, T/C (second compound 1 µM, first compound 0.316 µM) 76.3% | viability, T/C (second compound 1 µM, first compound 1 µM) 78% | viability, T/C (second compound 1 µM, first compound 3.16 µM) 87.6% | viability, T/C (second compound 1 µM, first compound 10 µM) 69.6% | viability, T/C (second compound 3.16 µM, first compound 0.0316 µM) 68.8% | viability, T/C (second compound 3.16 µM, first compound 0.1 µM) 82.8% | viability, T/C (second compound 3.16 µM, first compound 0.316 µM) 80.4% | viability, T/C (second compound 3.16 µM, first compound 1 µM) 101% | viability, T/C (second compound 3.16 µM, first compound 3.16 µM) 77.3% | viability, T/C (second compound 3.16 µM, first compound 10 µM) 66.4% | viability, T/C (second compound 10 µM, first compound 0.0316 µM) 79% | viability, T/C (second compound 10 µM, first compound 0.1 µM) 80.4% | viability, T/C (second compound 10 µM, first compound 0.316 µM) 81.7% | viability, T/C (second compound 10 µM, first compound 1 µM) 79.8% | viability, T/C (second compound 10 µM, first compound 3.16 µM) 75.8% | viability, T/C (second compound 10 µM, first compound 10 µM) 68.3%
> 10 µM: IC50 (second compound 0.0316 µM) | IC50 (second compound 0.1 µM) | IC50 (second compound 0.316 µM) | IC50 (second compound 1 µM) | IC50 (second compound 3.16 µM) | IC50 (second compound 10 µM)
